Tests used:
[1] = tested on: hyperlocomotion of the mice induced by MK801; test: Open field test, hyperlocomotion induced by MK801; assay type: in vivo, C57B6 male mice; conditions: for Distance travelled (cm): 5-minute bin
Protocol: Experimental method: The experimental animals were C57B6 male mice, n=8 in each group. This model used C57B6 mice as experimental animals. Hyperlocomotion of the mice in open field was induced by acute injection of a NMDA antagonist MK801. and modeled to test the inhibitory effect of different compounds on hyperkinesia phenotype induced by MK801. All mouse behavior experiments were carried out during the light period, and the whole process was recorded by the camera and locomotive data were tracked and analyzed by behavioral tracking software. The compounds were administered intraperitoneally. Immediately after the injection, the mice entered the open field and their movement trajectories were recorded by the camera. After 30 minutes, the mice received 0.2 mg/kg of MK801 by intraperitoneal injection and returned to the open field immediately after administration and the movement trajectories were further recorded for 120 minutes. The accumulative travelled distance of the mice was counted in a 5-minute bin. Data statistics were performed using Student-t-test analysis, *p<0.05, ** p<0.01, *** p<0.001, **** p<0.0001.

dopamine D2 receptors = dopamine D2 receptors (Homo sapiens (Human), UniProt P14416); test: Dopamine D2 receptor Gαi1 BRET (G protein trimer dissociation); assay type: cell-based; conditions: D2 receptor, G protein pathway;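 also: transfected cells co-expressing D2 receptor, Gαi1-Rluc, Gβ3 and Gγ9-GFP, BRET with coelenterazine 400a at 5 µM read as G protein trimer dissociation, graded drug concentrations in duplicate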
Protocol: To examine the downstream G protein signaling pathway mediated by dopamine D2 receptors, on the first day, a 6 cm culture dish was used for transfection with 1 μg of dopamine D2 receptors, 1 μg of Gαi1 containing a C-terminal seaweed luciferase (Gαi1-Rluc), 1 μg of Gβ3, 1 μg of Gγ9 containing C-terminal green fluorescent protein (Gγ9-GFP), and 16 μL of PEI. At the same time, in order to examine the downstream β-arrestin2 signaling pathway mediated by dopamine D2 receptors, on the first day, a 6 cm culture dish was used for transfection with 500 μg of dopamine D2 receptors containing C-terminal seaweed luciferase (D2-Rluc), 500 μg of G protein-coupled receptor kinase 2 (GRK2), 2500 μg of β-arrestin2 containing N-terminal green fluorescent protein (GFP2-ARRB2) mixed with 14 μL of PEI. The next day, the confluent cells of a 6 cm culture dish were digested and reseeded into a 96-well plate with 100 μL of culture medium added to each well. On the third day, the drugs were added for test. The 96-well plate was taken out from the cell incubator to decant the culture medium, 40 μL of the substrate coelenterazine 400a (final concentration of 5 μM) was added to each well, and then 20 μL of different drugs were added sequentially from left to right to ensure that the final concentration of the drug decreased gradually from bottom to top, with two replicates per treatment. Finally, the prepared samples were loaded on machine for test. The machine readout value reflected the recruitment of β-arrestin2 to the membrane or the dissociation of G protein trimer. The former indicated the degree of activation of the β-arrestin2 signaling pathway downstream of the dopamine D2 receptors, and the latter indicated the degree of activation of the G protein signaling pathway downstream of the dopamine D2 receptors.

5-HT2A receptor = 5-HT2A receptor (Homo sapiens (Human), UniProt P28223); test: Affinity for 5-HT2A receptors, radioligand competition with [3H]-ketanserin; assay type: binding; conditions: 293T membrane transiently expressing 5-HT2A
Protocol: The affinity of the compounds of the present disclosure for the 5-HT2A receptors was determined by the method of radioligand competition experiment. In the first step, a cell membrane component containing specific 5-HT2A receptor was prepared. A 10 cm dish was used for transfection with 10 ng of the 5-HT2A receptor and 40 μL of PEI. After 48 hours, the 10 cm dish was taken out from the cell incubator and the cultured cells had expressed the 5-HT2A receptor. A vacuum pump was used to suck off the culture medium, 3 mL of lysis buffer was added to each culture dish, and the cells were placed in a 4° C. cold room for 10 minutes. After the cells were detached, the cells were transferred to a 15 mL centrifuge tube and centrifuged at 1500 rpm for 5 minutes at 4° C., and the supernatant was discarded. The cell pellet was transferred to a tissue homogenizer, and 3 mL of lysis buffer was added and fully ground until the cells were broken. Then, cell suspension was equally aliquoted into several EP tubes, centrifuged at 12000 rpm for 5 minutes at 4° C., and the supernatant was discarded. The precipitate was the cell membrane component containing the 5-HT2A receptor. […] First, a standard binding buffer was added to the cell membrane component containing the 5-HT2A receptor, and the cell membrane was disrupted and resuspended with an electric tissue homogenizer. 30 μL of membrane protein suspension was added to each well of a 96-well plate. Then, 30 μL of different drugs were added to the 96-well plate sequentially from bottom to top to ensure that the final drug concentrations were 10^−5 M, 10^−6 M, 10^−7 M, 10^−8 M, 10^−9 M, and 0 M, with two replicates per treatment. Next, 30 μL of [3H]-ketanserin was added to each well of the 96-well plate. The plate was incubated for 2 hours at room temperature in the dark. Detection was conducted. The machine readout value reflected the amount of [3H]-ketanserin bound on the membrane, and after further data processing, the affinity Ki values of different compounds for the 5-HT2A receptor were obtained.

5-HT1A receptor = 5-HT1A receptor (Homo sapiens (Human), UniProt P08908); test: Affinity for 5-HT1A receptors, radioligand competition with [3H]-LSD; assay type: binding; conditions: 293T membrane transiently expressing 5-HT1A; [3H]-LSD; read-out: 5-HT1A affinity Ki;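 also: membranes from cells transiently transfected with 5-HT1A receptor, bound [3H]-LSD displaced by compound at 10^-9 to 10^-5 M, 2 h incubation at room temperature in the dark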
Chain of 5-HT1A receptor (P08908 whole entry): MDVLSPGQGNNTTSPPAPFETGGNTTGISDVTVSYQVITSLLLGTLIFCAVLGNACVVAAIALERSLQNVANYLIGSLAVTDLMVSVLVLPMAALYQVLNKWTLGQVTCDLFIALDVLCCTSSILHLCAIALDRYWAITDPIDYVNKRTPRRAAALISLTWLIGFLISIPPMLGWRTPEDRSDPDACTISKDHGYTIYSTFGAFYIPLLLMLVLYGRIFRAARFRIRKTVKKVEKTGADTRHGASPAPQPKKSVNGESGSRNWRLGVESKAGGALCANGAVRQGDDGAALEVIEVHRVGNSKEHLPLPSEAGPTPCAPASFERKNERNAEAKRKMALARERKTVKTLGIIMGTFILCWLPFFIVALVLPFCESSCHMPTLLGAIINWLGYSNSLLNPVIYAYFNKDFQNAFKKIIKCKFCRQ
Protocol: The affinity of the compounds of the present disclosure for the 5-HTIA receptors was determined by the method of radioligand competition experiment. In the first step, a cell membrane component containing specific 5-HTIA receptor was prepared. A 10 cm culture dish was used for transfection with 10 ng of the 5-HTIA receptor and 40 μL of PEI. After 48 hours, the 10 cm culture dish was taken out from the cell incubator and the cultured cells had expressed the 5-HTIA receptor. A vacuum pump was used to suck off the culture medium, 3 mL of lysis buffer was added to each culture dish, and the cells were placed in a 4° C. cold room for 10 minutes. After the cells were detached, the cells were transferred to a 15 mL centrifuge tube and centrifuged at 1500 rpm for 5 minutes at 4° C., and the supernatant was discarded. The cell pellet was transferred to a tissue homogenizer, and 3 mL of lysis buffer was added and fully ground until the cells were broken. Then, cell suspension was equally aliquoted into several EP tubes, centrifuged at 12000 rpm for 5 minutes at 4° C., and the supernatant was discarded. The precipitate was the cell membrane component containing the 5-HT1A receptor. […] First, a standard binding buffer was added to the cell membrane component containing the 5-HT1A receptor, and the cell membrane was disrupted and resuspended with an electric tissue homogenizer. 30 μL of membrane protein suspension was added to each well of a 96-well plate. Then, 30 μL of different drugs were added to the 96-well plate sequentially from bottom to top to ensure that the final drug concentrations were 10^−5 M, 10^−6 M, 10^−7 M, 10^−8 M, 10^−9 M, and 0 M, with two replicates per treatment. Next, 30 μL of [3H]-LSD was added to each well of the 96-well plate. The plate was incubated for 2 hours at room temperature in the dark. Detection was conducted. The machine readout value reflected the amount of [3H]-LSD bound on the membrane, and after further data processing, the affinity Ki values of different compounds for the 5-HTIA receptor were obtained. To examine the downstream G protein signaling pathway mediated by 5-HTIA receptors, on the first day, a 6 cm culture dish was used for transfection with 1 μg of 5-HTIA receptors, 1 μg of Gαi1 containing C-terminal seaweed luciferase (Gαi1-Rluc), 1 μg of Gβ3, 1 μg of Gγ9 containing C-terminal green fluorescent protein (Gγ9-GFP), and 16 μL of PEI. The next day, the confluent cells of a 6 cm culture dish were digested and reseeded into a 96-well plate with 100 μL of culture medium was added to each well. On the third day, the drugs were added for test. The 96-well plate was taken out from the cell incubator to decant the culture medium, 40 μL of the substrate coelenterazine 400a (final concentration of 5 μM) was added to each well, and then 20 μL of different drugs were added sequentially from left to right to ensure that the final concentration of the drug decreased gradually from bottom to top, with two replicates per treatment. Finally, the prepared samples were loaded on machine for test. The machine readout value reflected the dissociation of G protein trimer, and thereby indicated the degree of activation of the G protein signaling pathway downstream of the 5-HTIA receptors.

Chain of dopamine D2 receptors (P14416 whole entry): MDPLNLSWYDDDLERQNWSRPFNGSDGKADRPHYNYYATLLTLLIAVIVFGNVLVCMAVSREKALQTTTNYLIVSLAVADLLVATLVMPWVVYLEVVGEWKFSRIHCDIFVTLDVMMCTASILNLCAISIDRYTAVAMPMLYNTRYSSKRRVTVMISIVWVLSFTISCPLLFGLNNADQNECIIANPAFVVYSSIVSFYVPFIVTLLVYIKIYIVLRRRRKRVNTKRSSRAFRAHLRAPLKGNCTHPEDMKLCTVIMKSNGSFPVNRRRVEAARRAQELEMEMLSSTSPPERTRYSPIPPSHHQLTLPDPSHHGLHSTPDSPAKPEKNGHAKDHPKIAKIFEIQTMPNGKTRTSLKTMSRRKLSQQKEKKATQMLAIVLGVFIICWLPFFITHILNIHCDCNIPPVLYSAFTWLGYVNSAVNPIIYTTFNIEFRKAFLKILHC
Chain of 5-HT2A receptor (P28223 whole entry): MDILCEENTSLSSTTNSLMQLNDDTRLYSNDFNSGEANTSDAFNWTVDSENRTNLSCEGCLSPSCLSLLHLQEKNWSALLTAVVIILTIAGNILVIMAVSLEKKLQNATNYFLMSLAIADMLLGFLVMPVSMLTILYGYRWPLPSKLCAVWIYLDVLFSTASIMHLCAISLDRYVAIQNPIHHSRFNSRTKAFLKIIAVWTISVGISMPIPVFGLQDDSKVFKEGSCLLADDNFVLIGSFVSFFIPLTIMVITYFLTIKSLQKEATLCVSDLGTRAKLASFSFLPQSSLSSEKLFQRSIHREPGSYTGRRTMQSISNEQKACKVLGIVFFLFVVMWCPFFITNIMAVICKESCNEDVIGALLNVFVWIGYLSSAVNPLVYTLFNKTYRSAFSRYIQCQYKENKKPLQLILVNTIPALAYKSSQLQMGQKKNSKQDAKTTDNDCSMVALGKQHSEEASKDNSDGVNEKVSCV

Structure (SMILES): CN(C)C(=O)N[C@H]1CC[C@H](CCN2CCN3c4cccc5scc(c45)CC3C2)CC1 (single isomer, unassigned; (-)) [(−)-I-27]
- Distance travelled (cm) ([1]; (−)-I-27 0.2 mg/kg i.p. + MK801 0.2 mg/kg, 75 minutes after MK801): 564.58 ± 153.01 cm
- Distance travelled (cm) ([1]; (−)-I-27 0.2 mg/kg i.p. + MK801 0.2 mg/kg, 80 minutes after MK801): 501.93 ± 119.91 cm
- Distance travelled (cm) ([1]; (−)-I-27 0.2 mg/kg i.p. + MK801 0.2 mg/kg, 85 minutes after MK801): 471.35 ± 107.44 cm
- Distance travelled (cm) ([1]; (−)-I-27 0.2 mg/kg i.p. + MK801 0.2 mg/kg, 90 minutes after MK801): 399.78 ± 105.26 cm
- Distance travelled (cm) ([1]; (−)-I-27 0.2 mg/kg i.p. + MK801 0.2 mg/kg, 95 minutes after MK801): 301.32 ± 70.58 cm
- Distance travelled (cm) ([1]; (−)-I-27 0.2 mg/kg i.p. + MK801 0.2 mg/kg, 100 minutes after MK801): 268.55 ± 74.28 cm
- Distance travelled (cm) ([1]; (−)-I-27 0.2 mg/kg i.p. + MK801 0.2 mg/kg, 105 minutes after MK801): 299.24 ± 98.85 cm
- Distance travelled (cm) ([1]; (−)-I-27 0.2 mg/kg i.p. + MK801 0.2 mg/kg, 110 minutes after MK801): 378.85 ± 88.69 cm
- Distance travelled (cm) ([1]; (−)-I-27 0.2 mg/kg i.p. + MK801 0.2 mg/kg, 115 minutes after MK801): 236.86 ± 61.21 cm
- Distance travelled (cm) ([1]; (−)-I-27 0.2 mg/kg i.p. + MK801 0.2 mg/kg, 120 minutes after MK801): 183.04 ± 51.72 cm
- Distance travelled (cm) ([1]; (−)-I-27 0.2 mg/kg i.p., 0 minutes, before MK801): 426.03 ± 34.51 cm
- Distance travelled (cm) ([1]; (−)-I-27 0.2 mg/kg i.p., −5 minutes, before MK801): 420.23 ± 44.8 cm
- Distance travelled (cm) ([1]; (−)-I-27 0.2 mg/kg i.p., −10 minutes, before MK801): 462.71 ± 40.83 cm
- Distance travelled (cm) ([1]; (−)-I-27 0.2 mg/kg i.p., −15 minutes, before MK801): 534.93 ± 50.26 cm
- Distance travelled (cm) ([1]; (−)-I-27 0.2 mg/kg i.p., −20 minutes, before MK801): 614.02 ± 31.52 cm
- Distance travelled (cm) ([1]; (−)-I-27 0.2 mg/kg i.p., −25 minutes, before MK801): 741.08 ± 56.17 cm
- Distance (cm) travelled in 45 minutes ([1]; (−)-I-27 0.4 mg/kg i.p. + MK801 0.2 mg/kg, 0-45 minute interval after MK-801): 4056.3 cm
- Distance travelled (cm) ([1]; (−)-I-27 0.4 mg/kg i.p. + MK801 0.2 mg/kg, 5 minutes after MK801): 479.22 ± 57.64 cm
- Distance travelled (cm) ([1]; (−)-I-27 0.4 mg/kg i.p. + MK801 0.2 mg/kg, 10 minutes after MK801): 277.07 ± 32.68 cm
- Distance travelled (cm) ([1]; (−)-I-27 0.4 mg/kg i.p. + MK801 0.2 mg/kg, 15 minutes after MK801): 316.03 ± 70.39 cm
- Distance travelled (cm) ([1]; (−)-I-27 0.4 mg/kg i.p. + MK801 0.2 mg/kg, 20 minutes after MK801): 370.1 ± 75.27 cm
- Distance travelled (cm) ([1]; (−)-I-27 0.4 mg/kg i.p. + MK801 0.2 mg/kg, 25 minutes after MK801): 403.74 ± 108.16 cm
- Distance travelled (cm) ([1]; (−)-I-27 0.4 mg/kg i.p. + MK801 0.2 mg/kg, 30 minutes after MK801): 584.67 ± 129.63 cm
- Distance travelled (cm) ([1]; (−)-I-27 0.4 mg/kg i.p. + MK801 0.2 mg/kg, 35 minutes after MK801): 633.6 ± 143.49 cm
- Distance travelled (cm) ([1]; (−)-I-27 0.4 mg/kg i.p. + MK801 0.2 mg/kg, 40 minutes after MK801): 483.45 ± 104.6 cm
- Distance travelled (cm) ([1]; (−)-I-27 0.4 mg/kg i.p. + MK801 0.2 mg/kg, 45 minutes after MK801): 508.42 ± 110.56 cm
- Distance travelled (cm) ([1]; (−)-I-27 0.4 mg/kg i.p. + MK801 0.2 mg/kg, 50 minutes after MK801): 541.28 ± 85 cm
- Distance travelled (cm) ([1]; (−)-I-27 0.4 mg/kg i.p. + MK801 0.2 mg/kg, 55 minutes after MK801): 483.29 ± 71.91 cm
- Distance travelled (cm) ([1]; (−)-I-27 0.4 mg/kg i.p. + MK801 0.2 mg/kg, 60 minutes after MK801): 421.36 ± 61.47 cm
- Distance travelled (cm) ([1]; (−)-I-27 0.4 mg/kg i.p. + MK801 0.2 mg/kg, 65 minutes after MK801): 371.77 ± 42.78 cm
- Distance travelled (cm) ([1]; (−)-I-27 0.4 mg/kg i.p. + MK801 0.2 mg/kg, 70 minutes after MK801): 347.51 ± 55.13 cm
- Distance travelled (cm) ([1]; (−)-I-27 0.4 mg/kg i.p. + MK801 0.2 mg/kg, 75 minutes after MK801): 296.62 ± 78.74 cm
- Distance travelled (cm) ([1]; (−)-I-27 0.4 mg/kg i.p. + MK801 0.2 mg/kg, 80 minutes after MK801): 244.49 ± 76.54 cm
- Distance travelled (cm) ([1]; (−)-I-27 0.4 mg/kg i.p. + MK801 0.2 mg/kg, 85 minutes after MK801): 160.39 ± 34.08 cm
- Distance travelled (cm) ([1]; (−)-I-27 0.4 mg/kg i.p. + MK801 0.2 mg/kg, 90 minutes after MK801): 386.57 ± 158.41 cm
- Distance travelled (cm) ([1]; (−)-I-27 0.4 mg/kg i.p. + MK801 0.2 mg/kg, 95 minutes after MK801): 201.39 ± 68.43 cm
- Distance travelled (cm) ([1]; (−)-I-27 0.4 mg/kg i.p. + MK801 0.2 mg/kg, 100 minutes after MK801): 234.28 ± 63.3 cm
- Distance travelled (cm) ([1]; (−)-I-27 0.4 mg/kg i.p. + MK801 0.2 mg/kg, 105 minutes after MK801): 229.02 ± 63.13 cm
- Distance travelled (cm) ([1]; (−)-I-27 0.4 mg/kg i.p. + MK801 0.2 mg/kg, 110 minutes after MK801): 210.95 ± 45.58 cm
- Distance travelled (cm) ([1]; (−)-I-27 0.4 mg/kg i.p. + MK801 0.2 mg/kg, 115 minutes after MK801): 323.92 ± 121.74 cm
- Distance travelled (cm) ([1]; (−)-I-27 0.4 mg/kg i.p. + MK801 0.2 mg/kg, 120 minutes after MK801): 324.23 ± 68.48 cm
- Distance travelled (cm) ([1]; (−)-I-27 0.4 mg/kg i.p., 0 minutes, before MK801): 441.97 ± 55.83 cm
- Distance travelled (cm) ([1]; (−)-I-27 0.4 mg/kg i.p., −5 minutes, before MK801): 317.51 ± 24.51 cm
- Distance travelled (cm) ([1]; (−)-I-27 0.4 mg/kg i.p., −10 minutes, before MK801): 419.17 ± 56.13 cm
- Distance travelled (cm) ([1]; (−)-I-27 0.4 mg/kg i.p., −15 minutes, before MK801): 374.1 ± 25.44 cm
- Distance travelled (cm) ([1]; (−)-I-27 0.4 mg/kg i.p., −20 minutes, before MK801): 475.66 ± 9.82 cm
- Distance travelled (cm) ([1]; (−)-I-27 0.4 mg/kg i.p., −25 minutes, before MK801): 903.06 ± 46.43 cm
- Gαi1 BRET (Emax %) (dopamine D2 receptors): (72.04%)
- EC50 (dopamine D2 receptors; read-out: Gαi1 BRET EC50): 3.76 nM
- Ki (5-HT2A receptor): 2290 nM
- Ki (5-HT1A receptor): 80 nM

Reference: patent US20240383913A1, “THIOPHENE RING COMPOUND, PREPARATION METHOD THEREFOR AND APPLICATION THEREOF” (CENTER FOR EXCELLENCE IN MOLECULAR CELL SCIENCE, CHINESE …, priority 2021, published 2024)
